From patent US20230382920A1, “SHMT Inhibitors” (The Trustees of Princeton University, priority 2020, published 2023)
Like-named read-outs stand apart in the source and are kept apart here.

Assay: Pharmacokinetics study of KDG-0271 in male CD1 mice (Example 3)
Format: in vivo
Conditions: for F: bioavailability vs 1 mg/kg IV; for MRT inf: read-out: MRTInf_obs
Procedure: A standard PK study of KDG-0271 was performed in male CD1 mice dosed with a single oral or intraperitoneal dose of KDG-0271. The parameters of the PK study are described in Table 18. Dosing solutions were freshly made prior to use, and were in the form of a suspension. […] For IV and IP, after collection, plasma samples from the same time point were pooled, and the pooled samples were analyzed by LC/MS/MS.
The desired serial concentrations of working solutions were achieved by diluting stock solution of analyte with 50% acetonitrile in water solution. 5 μL of working solutions (1, 2, 4, 20, 100, 200, 1000, 2000 ng/mL) were added to 10 μL of blank CD1 mouse plasma to achieve calibration standards of […] (0.5, 1, 2, 10, 50, 100, 500, 1000 ng/mL) in a total volume of 15 μL. Four quality control samples at 1 ng/mL, 2 ng/mL, 50 ng/mL and 800 ng/mL for plasma were prepared independently of those used for the calibration curves. These QC samples were prepared on the day of analysis in the same way as calibration standards.
15 μL standards, 15 μL QC samples and 15 μL unknown samples (10 μL plasma with 5 μL blank solution) were added to 200 μL of acetonitrile containing IS mixture for precipitating protein. Then the samples were vortexed for 30 seconds. After centrifugation at 4 degrees Celsius, 4000 rpm for 15 minutes, the supernatant was diluted three times with water. 10 μL of diluted supernatant was injected into the LC/MS/MS system for quantitative analysis.
BLOQ=Below quantifiable limit of 1 ng/mL. PK parameters were estimated by non-compartmental model using WinNonlin 6.1. The PO bioavailability (F %) was calculated as following:
AUClast-PO/AUCINF-PO>80%: F=(AUCINF-PO*DoseIV)/(mean AUCINF-IV*DosePO) AUClast-PO/AUCINF-PO≤80% or AUCINF was not available: F=(AUClast-PO*DoseIV)/(mean AUClast-IV*DosePO).
The IP bioavailability (F %) was calculated as following:
AUClast-IP/AUCINF-IP>80%: F=(AUCINF-IP*DoseIV)/(mean AUCINF-IV*DoseIP) AUClast-IP/AUCINF-IP≤80% or AUCINF was not available: F=(AUClast-IP*DoseIV)/(mean AUClast-IV*DoseIP).

[1] = male, mouse, plasma, CD1 mice, 1 mg/kg IV
[2] = male, mouse, CD1 mice, plasma, 1 mg/kg IV, read-out: Concentration IV_Mean
[3] = mouse, plasma, male CD1 mice, 200 mg/kg IP
[4] = mouse, plasma, male CD1 mice, 200 mg/kg PO
[5] = mouse, male CD1 mice, plasma, 200 mg/kg IP, read-out: Concentration IP_Mean
[6] = mouse, male CD1 mice, plasma, 200 mg/kg PO, read-out: Concentration PO_Mean

Compound `Cc1n[nH]c2c1C(c1cc(C#CC3CN(C(=O)OC(C)(C)C)C3)cc(CO)c1)(C(C)C)C(C#N)=C(N)O2` (centres unmarked) [KDG-0271, tert-butyl 3-[2-(3-[6-amino-5-cyano-4-isopropyl-3-methyl-1H-pyrano[2,3-c]pyrazol-4-yl]-5-(hydroxymethyl)phenyl)ethynyl]azetidine-1-carboxylate] has an AUC_%Extrap_obs (CD1 mice, 1 mg/kg IV) of 0.718%, an AUClast/D (CD1 mice, 1 mg/kg IV) of 99.3 kg·ng·h/mL/mg and a Cl_obs (CD1 mice, 1 mg/kg IV) of 167 mL/min/kg. For the same compound, the Vss_obs (CD1 mice, 1 mg/kg IV) was 3.32 L/kg, the “Concentration IV_Mean” value (CD1 mice, plasma, 1 mg/kg IV, 8 h) was “BLOQ” and the AUC_%Extrap_obs (male CD1 mice, 200 mg/kg IP) was 43.6%. For the same compound, the AUClast/D (male CD1 mice, 200 mg/kg IP) was 40.7 kg·ng·h/mL/mg, the F (male CD1 mice, 200 mg/kg IP) was 41.0% and the AUC_%Extrap_obs (male CD1 mice, 200 mg/kg PO) was 1.28%. For the same compound, the AUClast/D (male CD1 mice, 200 mg/kg PO) was 19.2 kg·ng·h/mL/mg, the F (male CD1 mice, 200 mg/kg PO) was 19.4% and the clinical symptoms (male CD1 mice, single dose 200 mg/kg PO or 200 mg/kg IP, entire experiment) was “No abnormal clinical symptoms were observed”. The AUC(0-inf) [1] was 100 ng·h/mL, the AUC(0-t) [1] was 99.3 ng·h/mL and the C0 [1] was 637 ng/mL. It also gave a half-life [1] of 0.787 h, an MRT inf [1] of 0.332 h and a concentration at 0.083 h (male, mouse, CD1 mice, plasma, 1 mg/kg IV, 0.083 h, read-out: Concentration IV_Mean) of 301 ng/mL. For the same compound, the concentration at 0.25 h [2] was 66.6 ng/mL, the concentration at 0.5 h [2] was 24.8 ng/mL and the concentration at 1 h [2] was 9.44 ng/mL. It also gave a concentration at 2 h [2] of 2.87 ng/mL, a concentration at 4 h [2] of 0.632 ng/mL and an AUC(0-inf) [3] of 14500 ng·h/mL. The AUC(0-t) [3] was 8150 ng·h/mL, the Cmax [3] was 2160 ng/mL and the Tmax [3] was 0.25 h. The half-life [3] was 6.85 h, the MRT inf [3] was 9.67 h and the AUC(0-inf) [4] was 3880 ng·h/mL. The AUC(0-t) [4] was 3830 ng·h/mL, the Cmax [4] was 1070 ng/mL and the Tmax [4] was 1 h. For the same compound, the half-life [4] was 1.2 h, the MRT inf [4] was 2.37 h and the concentration at 0.25 h [5] was 2160 ng/mL. It also gave a concentration at 0.5 h [5] of 1530 ng/mL, a concentration at 1 h [5] of 1390 ng/mL and a concentration at 2 h [5] of 1160 ng/mL. For the same compound, the concentration at 4 h [5] was 992 ng/mL, the concentration at 8 h (mouse, male CD1 mice, plasma, 200 mg/kg IP, 8 h, read-out: Concentration IP_Mean) was 638 ng/mL and the concentration at 0.25 h [6] was 701 ng/mL. The concentration at 0.5 h [6] was 958 ng/mL, the concentration at 1 h [6] was 1070 ng/mL and the concentration at 2 h [6] was 836 ng/mL. The concentration at 4 h [6] was 395 ng/mL and the concentration at 8 h (mouse, male CD1 mice, plasma, 200 mg/kg PO, 8 h, read-out: Concentration PO_Mean) was 28.6 ng/mL.
